Molecules are shown by their SMILES.

For 23 molecules, IC50 results are on record in patent US20230061417A1, “THIENOPYRIMIDINE DERIVATIVES AS LPA RECEPTOR 2 INHIBITORS” (CHIESI FARMACEUTICI S.P.A., priority 2019, published 2023).

The target of the assay is T1, human recombinant LPA2 (Homo sapiens, UniProt Q9HBW0).
T1 construct: expressed in transfected cells; host or cells: CHO (CHO-hLPA2 cell line)
The assay is described as follows: FLIPR calcium mobilization assay, LPA2 antagonism in CHO-hLPA2 cells. The assay is classed as cell-based. As to conditions: human recombinant LPA2 in CHO cells, LPA EC80 stimulation, 30 min pre-incubation; read-out: LPA2 IC50. The method, then:
The effectiveness of compounds of the present invention as LPA2 antagonist can be determined at the human recombinant LPA2 expressed in CHO cells, using a FLIPR assay in 384 well format.
CHO-hLPA2 cell lines are cultured in a humidified incubator at 5% CO2 in DMEM/F-12 (1:1) MIXTURE with 2 mM Glutamax, supplemented with 10% of Foetal Bovine Serum, 1 mM Sodium Pyruvate, 11 mM Hepes and 1× Penicillin/Streptomycin. CHO hLPA2 cells are seeded into black walled clear-bottom 384-well plates (#781091, Greiner Bio-One GmbH) at a density of 7,500 cells per well in 50 μl culture media and grown overnight in a 37° C. humidified CO2-incubator. Serial dilutions (1:3 or 1:4, 11 points CRC) of compounds are performed in 100% DMSO at 200× the final concentration. The compounds are diluted 1:50 prior to the experiment with Assay Buffer (20 mM HEPES, 145 mM NaCl, 5 mM KCl, 5.5 mM glucose, 1 mM MgCl2 and 2 mM CaCl2, pH 7.4 containing 0.01% Pluronic F-127) to obtain a solution corresponding to […] the final concentration in the assay (4×, 2% DMSO). The final concentration of DMSO in the assay will be 0.5% in each well. Medium is removed by aspiration and cells are then incubated with 30 μl of a loading solution containing 5 μM of the cytoplasmic Ca2+ indicator Cal-520 AM in Assay Buffer containing 2.5 mM probenecid for 30 min at 37° C. incubator (cell loading). The loaded cell plates are transferred into the FLIPR instrument and calcium responses are monitored during the on-line addition protocols. For testing of compounds, after the cell loading, 10 μl/well of 4× antagonists' solution was added onto the cells. After 30 min pre-incubation (at 37° C.), 10 μl/well of 5× concentrated LPA EC80 was added and Ca2+ mobilization responses was followed during the on-line addition protocol. Intracellular peak fluorescence values subtracted by baseline fluorescence are exported and analysed to determine IC50 values, respectively. The calcium response is expressed as percentage of the maximal inhibition of the EC80 agonist response.
The raw data (peak height expressed as relative fluorescence units) are normalized and transformed into “percent of inhibition”. Curve fitting and pIC50 (−Log IC50) estimations are carried out using a four-parameter logistic model using XLfit Software.
(In general: A change in cytosolic calcium serves as a functional read-out for many receptors and channels.)

T1 sequence (Q9HBW0 whole entry): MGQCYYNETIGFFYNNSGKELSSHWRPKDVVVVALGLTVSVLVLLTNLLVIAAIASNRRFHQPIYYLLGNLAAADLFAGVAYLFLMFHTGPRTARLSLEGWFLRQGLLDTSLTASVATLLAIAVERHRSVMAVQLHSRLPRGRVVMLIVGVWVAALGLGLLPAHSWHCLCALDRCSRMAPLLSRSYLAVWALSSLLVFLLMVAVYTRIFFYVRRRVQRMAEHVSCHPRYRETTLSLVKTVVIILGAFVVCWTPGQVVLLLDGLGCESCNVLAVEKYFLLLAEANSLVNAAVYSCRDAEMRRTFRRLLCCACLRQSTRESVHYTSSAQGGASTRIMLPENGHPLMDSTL

Take `Cc1csc2c(N[C@@H](C)CN3CCN(S(=O)(=O)c4cc(Br)c(Cl)s4)CC3)ncnc12` [Example 10, N-[(2S)-1-{4-[(4-bromo-5-chlorothiophen-2-yl)sulfonyl]piperazin-1-yl}propan-2-yl]-7-methylthieno[3,2-d]pyrimidin-4-amine]: the IC50 was under 1000 nM. As for `CC(=O)Nc1cc(F)c(S(=O)(=O)N2CCN(C[C@H](C)Nc3ncnc4c(C)csc34)CC2)cc1Cl` [Example 18, N-[2-chloro-5-fluoro-4-({4-[(2S)-2-({7-methylthieno[3,2-d]pyrimidin-4-yl}amino)propyl]piperazin-1-yl}sulfonyl)phenyl]acetamide], the IC50 is under 1000 nM.

Consider `Cc1csc(-c2ccc(S(=O)(=O)N3CCN(C[C@H](C)Nc4ncnc5c(C)csc45)CC3)cc2)n1` [Example 17, 7-methyl-N-[(2S)-1-{4-[4-(4-methyl-1,3-thiazol-2-yl)benzenesulfonyl]piperazin-1-yl}propan-2-yl]thieno[3,2-d]pyrimidin-4-amine], for which the IC50 was under 1000 nM. With `COC(=O)c1ccc(S(=O)(=O)N2CCN(C[C@H](C)Nc3ncnc4c(C)csc34)CC2)s1` [Example 4, Methyl 5-({4-[(2S)-2-({7-methylthieno[3,2-d]pyrimidin-4-yl}amino)propyl]piperazin-1-yl}sulfonyl)thiophene-2-carboxylate], the IC50 is under 1000 nM. For `Cc1csc2c(N[C@@H](C)CN3CCN(S(=O)(=O)c4ccc(-c5cc(C(F)(F)F)n(C)n5)s4)CC3)ncnc12` [Example 29, 7-methyl-N-[(2S)-1-[4-({5-[1-methyl-5-(trifluoromethyl)-1H-pyrazol-3-yl]thiophen-2-yl}sulfonyl)piperazin-1-yl]propan-2-yl]thieno[3,2-d]pyrimidin-4-amine] the value was under 1000 nM; for `CCc1nc(N[C@@H](C)CN2CCN(S(=O)(=O)c3sc(NC(=O)OC)nc3C)CC2)c2scc(C)c2n1` [Example 38, methyl N-[5-({4-[(2S)-2-({2-ethyl-7-methylthieno[3,2-d]pyrimidin-4-yl}amino)propyl]piperazin-1-yl}sulfonyl)-4-methyl-1,3-thiazol-2-yl]carbamate], 10 to 100 nM; for `CC(=O)Nc1cc(F)c(S(=O)(=O)N2CCN(C[C@H](C)Nc3ncnc4c(C)csc34)CC2)cc1C` [Example 6, N-[5-fluoro-2-methyl-4-({4-[(2S)-2-({7-methylthieno[3,2-d]pyrimidin-4-yl}amino)propyl]piperazin-1-yl}sulfonyl)phenyl]acetamide], under 1000 nM. For `COC(=O)Nc1nc(C)c(S(=O)(=O)N2CCN(C[C@H](C)Nc3ncnc4c(C)csc34)CC2)s1` [Example 20, methyl N-[4-methyl-5-({4-[(2S)-2-({7-methylthieno[3,2-d]pyrimidin-4-yl}amino)propyl]piperazin-1-yl}sulfonyl)-1,3-thiazol-2-yl]carbamate] the value was under 1000 nM; for `CC(=O)Nc1ncc(S(=O)(=O)N2CCN(C[C@H](C)Nc3nc(C4CC4)nc4c(C)csc34)CC2)s1` [Example 22, N-[5-({4-[(2S)-2-({2-cyclopropyl-7-methylthieno[3,2-d]pyrimidin-4-yl}amino)propyl]piperazin-1-yl}sulfonyl)-1,3-thiazol-2-yl]acetamide], under 1000 nM; for `Cc1csc2c(N[C@@H](C)CN3CCN(S(=O)(=O)c4cccc(Br)c4)CC3)ncnc12` [Example 7, N-[(2S)-1-[4-(3-bromobenzenesulfonyl)piperazin-1-yl]propan-2-yl]-7-methylthieno[3,2-d]pyrimidin-4-amine], under 1000 nM. For `COC(=O)c1cc(Br)c(S(=O)(=O)N2CCN(C[C@H](C)Nc3ncnc4c(C)csc34)CC2)s1` [Example 13, methyl 4-bromo-5-({4-[(2S)-2-({7-methylthieno[3,2-d]pyrimidin-4-yl}amino)propyl]piperazin-1-yl}sulfonyl)thiophene-2-carboxylate] the value was under 1000 nM; for `Cc1nc2ccc(S(=O)(=O)N3CCN(C[C@H](C)Nc4ncnc5c(C)csc45)CC3)cc2s1` [Example 23, 7-methyl-N-[(2S)-1-{4-[(2-methyl-1,3-benzothiazol-6-yl)sulfonyl]piperazin-1-yl}propan-2-yl]thieno[3,2-d]pyrimidin-4-amine], under 1000 nM. Turning to `Cc1csc2c(N[C@@H](C)CN3CCN(S(=O)(=O)c4ccc(Br)c(Cl)c4)CC3)ncnc12` [Example 11, N-[(2S)-1-[4-(4-bromo-3-chlorobenzenesulfonyl)piperazin-1-yl]propan-2-yl]-7-methylthieno[3,2-d]pyrimidin-4-amine], the IC50 is under 1000 nM.

Take `COC(=O)Nc1nc(C)c(S(=O)(=O)N2CCN(C[C@H](C)Nc3nc(C)nc4c(C)csc34)CC2)s1` [Example 37, Methyl N-[5-({4-[(2S)-2-({2,7-dimethylthieno[3,2-d]pyrimidin-4-yl}amino)propyl]piperazin-1-yl}sulfonyl)-4-methyl-1,3-thiazol-2-yl]carbamate]: the IC50 is under 1000 nM. In the case of `CCc1nc(N[C@@H](C)CN2CCN(S(=O)(=O)c3sc(NC(C)=O)nc3C)CC2)c2scc(C)c2n1` [Example 36, N-[5-({4-[(2S)-2-({2-ethyl-7-methylthieno[3,2-d]pyrimidin-4-yl}amino)propyl]piperazin-1-yl}sulfonyl)-4-methyl-1,3-thiazol-2-yl]acetamide], the IC50 was under 1000 nM. For `COC(=O)Nc1nc(C)c(S(=O)(=O)N2CCN(C[C@H](C)Nc3nc(C4CC4)nc4c(C(F)(F)F)csc34)CC2)s1` [Example 34, methyl N-[5-({4-[(2S)-2-{[2-cyclopropyl-7-(trifluoromethyl)thieno[3,2-d]pyrimidin-4-yl]amino}propyl]piperazin-1-yl}sulfonyl)-4-methyl-1,3-thiazol-2-yl]carbamate] the value was under 10 nM; for `COC(=O)Nc1nc(C)c(S(=O)(=O)N2CCN(C[C@H](C)Nc3nc(Cl)nc4c(C(F)(F)F)csc34)CC2)s1` [Example 32, methyl N-[5-({4-[(2S)-2-{[2-chloro-7-(trifluoromethyl)thieno[3,2-d]pyrimidin-4-yl]amino}propyl]piperazin-1-yl}sulfonyl)-4-methyl-1,3-thiazol-2-yl]carbamate], under 1000 nM.

On to `Cc1csc2c(N[C@@H](C)CN3CCN(S(=O)(=O)c4cnn(-c5ccc(C(F)(F)F)cn5)c4)CC3)ncnc12` [Example 25, 7-methyl-N-[(2S)-1-[4-({1-[5-(trifluoromethyl)pyridin-2-yl]-1H-pyrazol-4-yl}sulfonyl)piperazin-1-yl]propan-2-yl]thieno[3,2-d]pyrimidin-4-amine], for which the IC50 was under 1000 nM. For `Cc1nc(-c2ccc(S(=O)(=O)N3CCN(C[C@H](C)Nc4ncnc5c(C)csc45)CC3)s2)cs1` [Example 27, 7-methyl-N-[(2S)-1-(4-{[5-(2-methyl-1,3-thiazol-4-yl)thiophen-2-yl]sulfonyl}piperazin-1-yl)propan-2-yl]thieno[3,2-d]pyrimidin-4-amine] the value was under 1000 nM; for `Cc1nc(NC(=O)C2CN(C(=O)OC(C)(C)C)C2)sc1S(=O)(=O)N1CCN(C[C@H](C)Nc2ncnc3c(C)csc23)CC1` [Example 33, tert-butyl 3-{[4-methyl-5-({4-[(2S)-2-({7-methylthieno[3,2-d]pyrimidin-4-yl}amino)propyl]piperazin-1-yl}sulfonyl)-1,3-thiazol-2-yl]carbamoyl}azetidine-1-carboxylate], under 1000 nM. For `Cc1noc(-c2ccc(S(=O)(=O)N3CCN(C[C@H](C)Nc4ncnc5c(C)csc45)CC3)s2)c1C` [Example 28, N-[(2S)-1-(4-{[5-(3,4-dimethyl-1,2-oxazol-5-yl)thiophen-2-yl]sulfonyl}piperazin-1-yl)propan-2-yl]-7-methylthieno[3,2-d]pyrimidin-4-amine] the value was 10 to 100 nM. The same measure for `COC(=O)Nc1nc(C)c(S(=O)(=O)N2CCN(C[C@H](C)Nc3ncnc4c(C(F)(F)F)csc34)CC2)s1` [Example 1, methyl N-[4-methyl-5-({4-[(2S)-2-{[7-(trifluoromethyl)thieno[3,2-d]pyrimidin-4-yl]amino}propyl]piperazin-1-yl}sulfonyl)-1,3-thiazol-2-yl]carbamate]: 10 to 100 nM; for `Cc1csc2c(N[C@@H](C)CN3CCN(S(=O)(=O)c4ccc(NC(=O)c5ccncc5)cc4)CC3)ncnc12` [Example 16, N-[4-({4-[(2S)-2-({7-methylthieno[3,2-d]pyrimidin-4-yl}amino)propyl]piperazin-1-yl}sulfonyl)phenyl]pyridine-4-carboxamide]: under 1000 nM.

What is called IC50 is the point on the concentration scale where inhibition reaches its midpoint.
